Assay [1] concerns Dahl salt-sensitive (Dahl-S) rats. Kind of assay: Dahl salt-sensitive rat model: blood pressure by telemetry, area between curves (ABC). The assay is classed as in vivo. The conditions noted are these: oral, 0 to 72 hours. How it is done: Dahl Salt-Sensitive Rat Model
Dahl salt-sensitive (Dahl-S) were purchased from Harlan (Netherlands). The rats were housed by group during the acclimatization period and single-housed after implantation of the telemetry device. All animals were maintained under identical conditions and had free access to normal pelleted rat chow and water. Dahl salt-sensitive rats develop hypertension only upon exposure to salt intake. They were administered a high-salt (8%) chow diet (Purina series 5500). Five weeks after starting salt administration, a telemetry system was implanted under anaesthesia by inhalation of 2.5% isoflurane (in 70% O2+30% N2O). […]
The compounds were administered at least 2 weeks after telemetry system implantation. […] The acute effects of the compound of formula (I), the compound having PDE5-inhibitory properties and their combination on blood pressure were measured by collecting data at 5-minute intervals up to 72 h after oral administration. Hourly means of blood pressure were calculated for each rat. […] The two curves (blood pressure of the control period and blood pressure of the treatment period) were plotted together and the area between curves (ABC) from 0 to 72 hours was calculated. […]

The test system of assay [2] is spontaneously hypertensive rats (SHR). Put plainly: Spontaneously hypertensive rat model: blood pressure by telemetry, area between curves (ABC). The conditions noted are these: oral, 0 to 72 hours. The assay is classed as in vivo. How it is done: The compounds were administered at least 2 weeks after telemetry system implantation. The compound of formula (I) and the compound having PDE5-inhibitory properties were prepared in 5% arabic gum and administered by oral gavage. The acute effects of the compound of formula (I), the compound having PDE5-inhibitory properties and their combination on blood pressure were measured by collecting data at 5-minute intervals up to 72 h after oral administration. Hourly means of blood pressure were calculated for each rat. Each rat served as its own control, by using the blood pressure data of the last 24 hours before drug administration. The two curves (blood pressure of the control period and blood pressure of the treatment period) were plotted together and the area between curves (ABC) from 0 to 72 hours was calculated. The higher the ABC, the stronger the effect of the item tested for lowering blood pressure.
Spontaneously Hypertensive Rat Model
The SHR rats were purchased from Harlan (Netherlands).

The structures appear in SMILES notation. Values joined by “and” are separate entries in the source; they are usually repeats but may differ in a detail not shown here. Identical values can stand only once.

With `CCCNS(=O)(=O)Nc1ncnc(OCCOc2ncc(Br)cn2)c1-c1ccc(Br)cc1` [compound of formula (I)], the “area between curves (ABC) of blood pressure, control period vs treatment period” value (from here on “area between curves (ABC) … vs treatment period”) in assay [1] (0.3 mg/kg, higher ABC = stronger blood pressure lowering) is 256; in assay [2] (0.3 mg/kg), 44 and 38.
As for `CN1CC(=O)N2[C@H](c3ccc4c(c3)OCO4)c3[nH]c4ccccc4c3C[C@@H]2C1=O` [tadalafil], the “area between curves (ABC) … vs treatment period” value in assay [1] (10 mg/kg) came out at 310; in assay [2] (10 mg/kg), 286.
`CCCc1nn(C)c2c(=O)[nH]c(-c3cc(S(=O)(=O)N4CCN(C)CC4)ccc3OCC)nc12` [sildenafil]: in assay [2] (30 mg/kg), the “area between curves (ABC) … vs treatment period” value stood at 229.
